Experimental data published in ChEMBL document CHEMBL1155681, “Structure and antibacterial activity ofp6 new labdane diterpenoid from Salvia leriaefolia” (2000).

Columns and labels:
Format in all cases: functional
[1] = test system: Staphylococcus aureus; experiment: Antibacterial activity against Staphylococcus aureus ATCC 25923 at 0.4 mM; conditions: read-out: IZ
[2] = test system: Escherichia coli; experiment: Antibacterial activity against Escherichia coli ATCC 25922
[3] = test system: Pseudomonas aeruginosa; experiment: Antibacterial activity against Pseudomonas aeruginosa ATCC 85327

Q: What does the source list for `C=C/C(C)=C/C[C@H]1C(=C)C[C@H]2OC(=O)[C@@]3(C)CCC[C@@]1(C)[C@@H]23`?
A: zone of inhibition at 400 µM [1]: 20 mm; inhibition zone (IZ) [2]: 13 mm; inhibition zone (IZ) [3]: 12 mm
